ChEMBL document CHEMBL1201862, “PubChem BioAssay data set” (2004)
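Cells were grown in 96-well plates and exposed to each compound for 48 hours at five concentrations; endpoints were interpolated linearly between bracketing concentrations, or set to the highest concentration if not reached. At the GI50, growth is halved.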 The source made the active and inactive calls. Rule as the data show it: active = GI50 up to about 1.1 µM and inactive = higher.

What was measured:
Assay in all cases: NCI-60 cell line screen, 48 h
[1] = system: A549
[2] = system: ACHN
[3] = system: CCRF-CEM
[4] = system: HCC 2998
[5] = system: HOP-62
[6] = system: HOP-92
[7] = system: MCF7
[8] = system: NCI-H522
[9] = system: NCI/ADR-RES
[10] = system: OVCAR-4
[11] = system: OVCAR-5
[12] = system: OVCAR-8
[13] = system: SF-295
[14] = system: SK-MEL-5
[15] = system: SNB-75
[16] = system: SR
[17] = system: T47D
[18] = system: TK-10
[19] = system: UO-31

Row | Compound | GI50 [1] | GI50 [2] | GI50 [3] | GI50 [4] | GI50 [5] | GI50 [6] | GI50 [7] | GI50 [8] | GI50 [9] | GI50 [10] | GI50 [11] | GI50 [12] | GI50 [13] | GI50 [14] | GI50 [15] | GI50 [16] | GI50 [17] | GI50 [18] | GI50 [19]
1 | CCOC(=O)C(CS)NC(=O)CCCCCCCC(=O)NC(CS)C(=O)OCC (centres undefined) | > 100 µM (inactive) | > 100 µM (inactive) | 21.2 µM (inactive) | > 100 µM (inactive) | > 100 µM (inactive) | > 100 µM (inactive) | > 100 µM (inactive) | 49.1 µM (inactive) | > 100 µM (inactive) | > 100 µM (inactive) | > 100 µM (inactive) | > 100 µM (inactive) | > 100 µM (inactive) | > 100 µM (inactive) | > 100 µM (inactive) | 36.3 µM (inactive) | > 100 µM (inactive) | > 100 µM (inactive) | > 100 µM (inactive)
2 | C=C1C[C@@H](O)[C@@H](Br)C(C)(C)[C@]12CCC(C)(Cl)C(Br)C2 (some centres undefined) | 26.2 µM (inactive) | 32.8 µM (inactive) | 41.6 µM (inactive) | 13.2 µM (inactive) | 19.1 µM (inactive) | 24.2 µM (inactive) | 25.1 µM (inactive) | 17.5 µM (inactive) | 21.4 µM (inactive) | 21.9 µM (inactive) | 0.736 µM (active) | 34.7 µM (inactive) | 30.6 µM (inactive) | 7.71 µM (inactive) | 18.9 µM (inactive) | 40.8 µM (inactive) | 19.5 µM (inactive) | 1.58 µM (inactive) | 59 µM (inactive)
3 | O=c1[nH]nc(Cc2ccccc2)n1C1CC1 | > 100 µM (inactive) | > 100 µM (inactive) | > 100 µM (inactive) | > 100 µM (inactive) | > 100 µM (inactive) | > 100 µM (inactive) | > 100 µM (inactive) | > 100 µM (inactive) | > 100 µM (inactive) | > 100 µM (inactive) | > 100 µM (inactive) | > 100 µM (inactive) | > 100 µM (inactive) | > 100 µM (inactive) | > 100 µM (inactive) | > 100 µM (inactive) | > 100 µM (inactive) | > 100 µM (inactive) | 61.7 µM (inactive)
4 | O=C1O/C(=C(/Cl)c2c3ccccc3cc3ccccc23)c2ccccc21 | 37.1 µM (inactive) | 24.5 µM (inactive) | 4 µM (inactive) | 30.9 µM (inactive) | 29.1 µM (inactive) | 21.8 µM (inactive) | 32.1 µM (inactive) | 29.8 µM (inactive) | 35.2 µM (inactive) | 17.2 µM (inactive) | 33.2 µM (inactive) | 23.4 µM (inactive) | 47 µM (inactive) | 15.4 µM (inactive) | 4.75 µM (inactive) | 4.58 µM (inactive) | 80.5 µM (inactive) | 32.8 µM (inactive) | 44.2 µM (inactive)
5 | COC(=O)c1ccc(CCc2cc(O)c(Br)cc2O)cc1 | 19.5 µM (inactive) | 13.2 µM (inactive) | 1.98 µM (inactive) | 17.7 µM (inactive) | 17.6 µM (inactive) | 12.9 µM (inactive) | 13.5 µM (inactive) | 3.16 µM (inactive) | 14.3 µM (inactive) | 11.2 µM (inactive) | 18.5 µM (inactive) | 16 µM (inactive) | 14.1 µM (inactive) | 11.5 µM (inactive) | 26.8 µM (inactive) | 3.2 µM (inactive) | 18.6 µM (inactive) | 14.5 µM (inactive) | 6.47 µM (inactive)
6 | CCCC[C@@H]1CCN2C[C@@H](O)[C@@H](O)[C@@H]2[C@H]1O | > 100 µM (inactive) | > 100 µM (inactive) | > 100 µM (inactive) | > 100 µM (inactive) | – | > 100 µM (inactive) | > 100 µM (inactive) | > 100 µM (inactive) | > 100 µM (inactive) | > 100 µM (inactive) | > 100 µM (inactive) | > 100 µM (inactive) | > 100 µM (inactive) | > 100 µM (inactive) | 89.9 µM (inactive) | > 100 µM (inactive) | > 100 µM (inactive) | – | > 100 µM (inactive)
7 | Cc1noc(C)c1-n1nc2ccc3nonc3c2n1 | > 100 µM (inactive) | > 88.5 µM (inactive) | > 100 µM (inactive) | > 100 µM (inactive) | 22.5 µM (inactive) | 29.1 µM (inactive) | > 67.8 µM (inactive) | > 78.7 µM (inactive) | > 100 µM (inactive) | > 100 µM (inactive) | > 100 µM (inactive) | 50.7 µM (inactive) | 31.7 µM (inactive) | > 100 µM (inactive) | 33.1 µM (inactive) | > 100 µM (inactive) | > 67.3 µM (inactive) | 24.8 µM (inactive) | 47.2 µM (inactive)
8 | O=C(Nc1ccc(Cl)cc1)c1cc(S(=O)(=O)N2CCNNC2=O)c(S)cc1Cl | > 100 µM (inactive) | > 100 µM (inactive) | 97.7 µM (inactive) | > 100 µM (inactive) | – | 28.8 µM (inactive) | > 100 µM (inactive) | 24.7 µM (inactive) | > 100 µM (inactive) | > 100 µM (inactive) | > 100 µM (inactive) | > 100 µM (inactive) | > 100 µM (inactive) | > 100 µM (inactive) | > 100 µM (inactive) | > 100 µM (inactive) | 35.6 µM (inactive) | 52.5 µM (inactive) | > 100 µM (inactive)
9 | N#Cc1nc(-c2ccccn2)c(-c2ccccn2)nc1C#N | 1.14 µM (inactive) | 1.11 µM (active) | 2.69 µM (inactive) | 3.66 µM (inactive) | 1.74 µM (inactive) | 7.96 µM (inactive) | 1.22 µM (inactive) | 1.64 µM (inactive) | 1.8 µM (inactive) | 1.79 µM (inactive) | 3.32 µM (inactive) | 2.64 µM (inactive) | 0.811 µM (active) | 1.85 µM (inactive) | 8.05 µM (inactive) | 1.82 µM (inactive) | 1.69 µM (inactive) | 1.82 µM (inactive) | 1.3 µM (inactive)
10 | C=CC(C)CCC(C/C=C(\C)CCC=C(C)C)C(=C)CCCC(C)C (centres undefined) | > 100 µM (inactive) | > 100 µM (inactive) | > 100 µM (inactive) | > 100 µM (inactive) | > 100 µM (inactive) | > 100 µM (inactive) | > 100 µM (inactive) | > 100 µM (inactive) | > 100 µM (inactive) | > 100 µM (inactive) | > 100 µM (inactive) | > 100 µM (inactive) | > 100 µM (inactive) | > 100 µM (inactive) | > 100 µM (inactive) | > 100 µM (inactive) | > 100 µM (inactive) | > 100 µM (inactive) | > 100 µM (inactive)
11 | Cn1c2ccccc2c(=NNc2ccccc2C(=O)O)c2ccccc21 | 12.9 µM (inactive) | 15.5 µM (inactive) | 13.2 µM (inactive) | 19.7 µM (inactive) | 23.1 µM (inactive) | 21.7 µM (inactive) | 10.9 µM (inactive) | 12 µM (inactive) | 20.1 µM (inactive) | 13.7 µM (inactive) | 30.3 µM (inactive) | 17.5 µM (inactive) | 17.6 µM (inactive) | 13.7 µM (inactive) | 21.1 µM (inactive) | 11.9 µM (inactive) | 20.3 µM (inactive) | 32.1 µM (inactive) | 18.4 µM (inactive)
12 | C[C@@]1(CCCCCCCCCCc2ccccc2)C[C@@]2(C)OC(=O)C[C@H]2OO1 | 2.76 µM (inactive) | 2.2 µM (inactive) | 1.55 µM (inactive) | 1.66 µM (inactive) | 1.57 µM (inactive) | 0.769 µM (active) | 1.56 µM (inactive) | 1.72 µM (inactive) | 1.68 µM (inactive) | 2.17 µM (inactive) | 1.76 µM (inactive) | 1.43 µM (inactive) | 1.82 µM (inactive) | 1.44 µM (inactive) | 2.81 µM (inactive) | 1.88 µM (inactive) | 2.49 µM (inactive) | 2.83 µM (inactive) | 1.89 µM (inactive)
13 | CN1C(=O)C(CC(=O)O)NC1=S (centres undefined) | > 100 µM (inactive) | > 100 µM (inactive) | > 100 µM (inactive) | > 100 µM (inactive) | > 100 µM (inactive) | > 100 µM (inactive) | 54 µM (inactive) | > 100 µM (inactive) | > 100 µM (inactive) | – | > 100 µM (inactive) | > 100 µM (inactive) | > 100 µM (inactive) | > 100 µM (inactive) | > 100 µM (inactive) | > 100 µM (inactive) | 51.4 µM (inactive) | > 100 µM (inactive) | > 100 µM (inactive)
14 | COC1(OC)N=C(N)C2(C#N)/C(=N/N(C)C)CC(C)C12C#N (centres undefined) | > 100 µM (inactive) | > 100 µM (inactive) | > 100 µM (inactive) | > 100 µM (inactive) | > 100 µM (inactive) | > 100 µM (inactive) | > 100 µM (inactive) | > 100 µM (inactive) | > 100 µM (inactive) | – | > 100 µM (inactive) | > 100 µM (inactive) | > 100 µM (inactive) | > 100 µM (inactive) | 71.9 µM (inactive) | > 100 µM (inactive) | > 100 µM (inactive) | > 100 µM (inactive) | > 100 µM (inactive)
15 | O=C(/C=C/c1ccccc1)c1cc(CN2CCOCC2)c(O)c(CN2CCOCC2)c1 | 17.9 µM (inactive) | 2.32 µM (inactive) | 2.71 µM (inactive) | 18.6 µM (inactive) | 16.8 µM (inactive) | 12.1 µM (inactive) | 14.7 µM (inactive) | > 100 µM (inactive) | 25.5 µM (inactive) | – | 14.6 µM (inactive) | 25.2 µM (inactive) | 19.1 µM (inactive) | 13.1 µM (inactive) | 19.3 µM (inactive) | 5.51 µM (inactive) | 20 µM (inactive) | 20.6 µM (inactive) | 15.4 µM (inactive)
